# Results taken from article PMC3614091 (Organic & biomolecular chemistry, 2010).
# Key:
# PDZ1 of PSD-95 [1] = biological target: T1, PDZ1 of PSD-95 (Homo sapiens, UniProt P78352); assay: Fluorescence polarization assay, PSD-95 PDZ1; assay type: binding; conditions: tested at 500 µM (data not shown)
# PICK1 PDZ domain [2] = biological target: T2, PICK1 PDZ domain (Rattus norvegicus, UniProt Q9EP80); assay type: binding; conditions: for affinity for PICK1 PDZ domain: at up to 500 µM concentrations (data not shown)
# PDZ3 of PSD-95 [3] = biological target: T3, PDZ3 of PSD-95 (Homo sapiens, UniProt P78352); assay: Fluorescence polarization assay, PSD-95 PDZ3; assay type: binding; conditions: tested at 500 µM (data not shown)
# PDZ2 of PSD-95 [4] = biological target: T4, PDZ2 of PSD-95 (Homo sapiens, UniProt P78352); assay: Fluorescence polarization assay, PSD-95 PDZ2; assay type: binding; conditions: tested at 500 µM (data not shown)
# PDZ3 of PSD-95 [5] = biological target: T3, PDZ3 of PSD-95; conditions: PDZ domains from PSD-95; cited from earlier work
# [6] = tested on: AMPA receptor trafficking; conditions: cited from earlier work
# PDZ1 of PSD-95 [7] = biological target: T1, PDZ1 of PSD-95; conditions: PDZ domains from PSD-95; cited from earlier work
# PICK1 PDZ domain [8] = biological target: T2, PICK1 PDZ domain; conditions: cited from earlier work
# PICK1 = conditions: biochemical studies; cited from earlier work
# PDZ2 of PSD-95 [9] = biological target: T4, PDZ2 of PSD-95; conditions: PDZ domains from PSD-95; cited from earlier work
# [10] = tested on: PDZ4-5 of glutamate receptor interacting protein-1 (GRIP1); conditions: PDZ4-5 of GRIP1; cited from earlier work
# hippocampal CA1 neurons = conditions: cited from earlier work
# T2 sequence (Q9EP80 whole entry, the tested form may be a part): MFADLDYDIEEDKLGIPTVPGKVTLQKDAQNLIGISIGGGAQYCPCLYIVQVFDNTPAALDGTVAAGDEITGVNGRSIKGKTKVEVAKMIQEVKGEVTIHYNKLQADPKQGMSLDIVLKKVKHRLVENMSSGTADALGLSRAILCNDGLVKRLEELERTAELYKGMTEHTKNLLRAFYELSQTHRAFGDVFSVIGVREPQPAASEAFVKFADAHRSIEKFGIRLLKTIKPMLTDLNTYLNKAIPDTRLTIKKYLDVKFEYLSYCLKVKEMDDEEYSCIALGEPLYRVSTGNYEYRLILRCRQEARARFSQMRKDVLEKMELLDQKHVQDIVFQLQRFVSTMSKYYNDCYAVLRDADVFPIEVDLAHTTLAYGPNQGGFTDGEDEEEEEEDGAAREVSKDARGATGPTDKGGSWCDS
affinity towards PDZ1 of PSD-95 (PDZ1 of PSD-95 [1]),affinity for PICK1 PDZ domain (PICK1 PDZ domain [2]),affinity towards PDZ3 of PSD-95 (PDZ3 of PSD-95 [3]),affinity towards PDZ2 of PSD-95 (PDZ2 of PSD-95 [4]),Ki (PICK1 PDZ domain [2]) [µM],SMILES,affinity for PDZ3 of PSD-95 (PDZ3 of PSD-95 [5]),effect on AMPA receptor trafficking [6],affinity for PDZ1 of PSD-95 (PDZ1 of PSD-95 [7]),binding to PICK1 PDZ domain in living cells (PICK1 PDZ domain [8]; intracellular FRET),membrane permeability (PICK1 PDZ domain [8]; not told),reversibility of binding to PICK1 (PICK1),affinity for PDZ2 of PSD-95 (PDZ2 of PSD-95 [9]),affinity for PDZ domains from GRIP1 [10],effect on induction of LTD and LTP (hippocampal CA1 neurons)
none of the compounds showed affinity,devoid of affinity,none of the compounds showed affinity,none of the compounds showed affinity,,"CCOC(=O)NC(=O)C(C#N)Cc1ccc(Cl)c(Cl)c1 (centres unmarked) [Compound 3, Ethyl 2-cyano-3-(3,4-dichlorophenyl)propanoylcarbamate]",,,,,,,,,
,,,,9.6 ± 0.22,"CCOC(=O)NC(=O)/C(C#N)=C/c1ccc(Cl)c(Cl)c1 [Compound 1, (E)-ethyl 2-cyano-3-(3,4-dichlorophenyl)acryloylcarbamate]",no affinity,affected AMPA receptor trafficking,no affinity,binds the PICK1 PDZ domain in living cells,membrane permeable,binds reversibly,no affinity,no affinity,inhibited induction of LTD and LTP
none of the compounds showed affinity,devoid of affinity,none of the compounds showed affinity,none of the compounds showed affinity,,"CCOC(=O)NC/C(C#N)=C/c1ccc(Cl)c(Cl)c1 [Compound 14, (Z)-ethyl 2-cyano-3-(3,4-dichlorophenyl)allylcarbamate]",,,,,,,,,
none of the compounds showed affinity,devoid of affinity,none of the compounds showed affinity,none of the compounds showed affinity,,"CCCCNC(=O)/C(C#N)=C/c1ccc(Cl)c(Cl)c1 [Compound 8, (E)-N-butyl-2-cyano-3-(3,4-dichlorophenyl)acrylamide]",,,,,,,,,
none of the compounds showed affinity,devoid of affinity,none of the compounds showed affinity,none of the compounds showed affinity,,"CCOC(=O)NC(=O)/C=C/c1ccc(Cl)c(Cl)c1 [Compound 5, (E)-ethyl 3-(3,4-dichlorophenyl)acryloylcarbamate]",,,,,,,,,
